One may read the IC50 as the concentration that gives 50% inhibition.

The record followed here is US11065253B2, “Arylquinazolines” (Merck Patent GmbH, priority 2013, dated 2021).

The first test deals with phospho-serine 2056 DNA-PK in HCT116 cells. In words: DNA-PK phosphorylation at serine 2056 (cellular), ELISA in bleomycin-treated HCT116 cells. Type of test: cell-based. As to conditions: Homo sapiens, HCT-116, 6 h, cellular; HCT116 cells, 10 μM bleomycin, six hours; read-out: IC50 pDNA-PK. An outline of the steps:
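After overnight seeding, HCT116 cells received compound with 10 μM bleomycin for 6 h; phospho-DNA-PK ELISA signals were scaled to total DNA-PKcs, DMSO serving as blank.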
A general note: In an ELISA, binding on a coated surface is turned into a signal by an enzyme label.
In the case of `COc1cc(Cl)nnc1C(O)c1ccc(F)c(-c2ncnc3cc(N4CCOCC4)ccc23)c1` (centres unmarked) [Example 10, (6-Chloro-4-methoxy-pyridazin-3-yl)-[4-fluoro-3-(7-morpholin-4-yl-quinazolin-4-yl)phenyl]-methanol], the IC50 is less than 0.5 µM.
On the same count and under the same terms, under `COc1cnc(Cl)c(C(O)c2ccc(F)c(-c3ncnc4cc(N5CCOCC5)ccc34)c2)n1` (centres unmarked) [Example 26, (3-Chloro-6-methoxy-pyrazin-2-yl)-[4-fluoro-3-(7-morpholin-4-yl-quinazolin-4-yl)phenyl]-methanol] stands less than 0.5 µM; under `Cc1nccnc1[C@H](O)c1ccc(F)c(-c2ncnc3cc(N4CCOCC4)ccc23)c1` [Example 83, (R)-[4-Fluoro-3-(7-morpholin-4-yl-quinazolin-4-yl)-phenyl]-(3-methyl-pyrazin-2-yl)methanol], less than 0.5 µM.
Still for that read-out and setting: under `OC(c1ccc(F)c(-c2ncnc3cc(N4CCOCC4)ccc23)c1)c1nc(Cl)cnc1Cl` (centres unmarked) [Example 35, (3,6-Dichloro-pyrazin-2-yl)-[4-fluoro-3-(7-morpholin-4-yl-quinazolin-4-yl)phenyl]-methanol] stands less than 0.5 µM.
The same measure, in the same setting: the same measure for `OC(c1cc(-c2ncnc3cc(N4CCOCC4)ccc23)c(F)cc1F)c1ncnc2sccc12` (centres unmarked) [Example 90, [2,4-Difluoro-5-(7-morpholin-4-yl-quinazolin-4-yl)-phenyl]thieno[2,3-d}-pyrimidin-4-ylmethanol]: less than 0.5 µM.
Consider `COc1cc(Cl)nnc1C(O)c1cc(-c2ncnc3cc(N4CCOCC4)ccc23)c(F)cc1Cl` (centres unmarked) [Example 8, [2-Chloro-4-fluoro-5-(7-morpholin-4-yl-quinazolin-4-yl)phenyl]-(6-chloro-4-methoxy-pyridazin-3-yl)methanol], for which the IC50 was 0.5 to 5 µM.
Consider `OC(c1ccc(F)c(-c2ncnc3cc(N4CCOCC4)ccc23)c1)c1ncccc1OC(F)F` (centres unmarked) [Example 81, (3-Difluoromethoxy-pyridin-2-yl)-[4-fluoro-3-(7-morpholin-4-yl-quinazolin-4-yl)-phenyl]methanol], for which the IC50 was less than 0.5 µM.

Still in this test, the particulars now being: Homo sapiens, HCT-116, cellular DNA-PK phosphorylation at serine 2056, HCT116 cells; read-out: IC50 pDNA-PK.
Take `COc1nccnc1C(O)c1cc(-c2ncnc3cc(N4CCOCC4)ccc23)c(F)cc1F` (centres unmarked) [Example 453]: the IC50 is less than 0.5 µM.
Regarding `Cn1cnc2c(C(O)c3ccc(F)c(-c4ncnc5cc(N6CCOCC6)ccc45)c3)ncnc21` (centres unmarked) [Example 420, [4-Fluoro-3-(7-morpholin-4-yl-quinazolin-4-yl)-phenyl]-(9-methyl-9H-purin-6-yl)-methanol], the IC50 was in the range of 5 to 10 µM.
The same measure, in the same setting: the same measure for `OC(c1ccc(F)c(-c2ncnc3cc(N4CCOCC4)ccc23)c1)c1ncnc2ccoc12` (centres unmarked) [Example 442, [4-Fluoro-3-(7-morpholin-4-yl-quinazolin-4-yl)-phenyl]furo[3,2-d}-pyrimidin-4-yl-methanol]: less than 0.5 µM.

The test is the same for the next values; noted with them: Homo sapiens, HCT-116, phospho-serine 2056 DNA-PK, bleomycin-treated HCT116 cells; class symbols A-D; read-out: IC50 pDNA-PK.
On to `COc1cc(C)c(C(O)c2cc(-c3ncnc4cc(N5CCOCC5)ccc34)c(F)cc2Cl)nn1` (centres unmarked) [Example 109, [2-Chloro-4-fluoro-5-(7-morpholin-4-yl-quinazolin-4-yl)-phenyl]-(6-methoxy-4-methylpyridazin-3-yl)methanol], for which the IC50 lay in the range of 5 to 10 µM.
Take `CNCc1csc(C(O)c2cc(-c3ncnc4cc(N5CCOCC5)ccc34)c(F)cc2Cl)n1` (centres unmarked) [Example 143, [2-Chloro-4-fluoro-5-(7-morpholin-4-yl-quinazolin-4-yl)-phenyl]-(4-methylamino-methyl-thiazol-2-yl)-methanol]: the IC50 lay within 5 to 10 µM.
On the same count and under the same terms, under `OC(c1ccc(F)c(-c2ncnc3cc(N4CCOCC4)ncc23)c1)c1nccs1` (centres unmarked) [Example 140, [4-Fluoro-3-(7-morpholin-4-yl-pyrido[4,3-d}-pyrimidin-4-yl)-phenyl]thiazol-2-yl-methanol] stands 10 to 30 µM.

The test is the same for the next values; noted with them: Homo sapiens, HCT-116, phospho-serine 2056 DNA-PK, bleomycin-treated HCT116 cells; read-out: IC50 pDNA-PK.
Regarding `NC(=O)c1cncc(C(C(N)=O)c2ccc(F)c(-c3ncnc4cc(N5CCOCC5)ccc34)c2)n1` (centres unmarked) [Example 292, 6-{Carbamoyl-[4-fluoro-3-(7-morpholin-4-yl-quinazolin-4-yl)-phenyl]methyl}-pyrazine-2-carboxylic acid amide], the IC50 fell in the range of 10 to 30 µM.
Still for that read-out and setting: the same measure for `NC(=O)C(c1ccc(F)c(-c2ncnc3cc(N4CCOCC4)ccc23)c1)c1cncc(F)c1Cl` (centres unmarked) [Example 322, 2-(4-Chloro-5-fluoro-pyridin-3-yl)-2-[4-fluoro-3-(7-morpholin-4-yl-quinazolin-4-yl)-phenyl]acetamide]: 0.5 to 5 µM; for `Cn1c(C(O)c2ccc(F)c(-c3ncnc4cc(N5CCOCC5)ccc34)c2)nccc1=O` (centres unmarked) [Example 360, 2-([4-Fluoro-3-(7-morpholin-4-yl-quinazolin-4-yl)-phenyl]hydroxy-methyl}-3-methyl-3H-pyrimidin-4-one]: 0.5 to 5 µM; for `OC(c1cc(-c2ncnc3cc(N4CCOCC4)ccc23)c(F)cc1F)c1nccn2cccc12` (centres unmarked) [Example 358, [2,4-Difluoro-5-(7-morpholin-4-yl-quinazolin-4-yl)-phenyl]pyrrolo[1,2-a]-pyrazin-1-ylmethanol]: less than 0.5 µM.
For `COc1nccnc1C(C(N)=O)c1ccc(F)c(-c2ncnc3cc(N4CCOCC4)ccc23)c1` (centres unmarked) [Example 305, 2-[4-Fluoro-3-(7-morpholin-4-yl-quinazolin-4-yl)-phenyl]-2-(3-methoxy-pyrazin-2-yl)acetamide], the IC50 was in the range of 5 to 10 µM.
In the case of `OC(c1ccc(F)c(-c2ncnc3cc(N4CCOCC4)ccc23)c1)c1nccc2ccoc12` (centres unmarked) [Example 328, [4-Fluoro-3-(7-morpholin-4-yl-quinazolin-4-yl)-phenyl]furo[2,3-c]-pyridin-7-ylmethanol], the half-maximal inhibitory concentration (IC50) was less than 0.5 µM.
On to `Cn1nc(C(C(N)=O)c2cc(-c3ncnc4cc(N5CCOCC5)ccc34)c(F)cc2Cl)ccc1=O` (centres unmarked) [Example 311, 2-[2-Chloro-4-fluoro-5-(7-morpholin-4-yl-quinazolin-4-yl)-phenyl]-2-(1-methyl-6-oxo-1,6-dihydro-pyridazin-3-yl)-acetamide], for which the IC50 was in the range of 10 to 30 µM.
The same measure, in the same setting: the same measure for `Cc1nccnc1C(O)c1cc(-c2ncnc3cc(N4CCOCC4)cnc23)c(F)cc1Cl` (centres unmarked) [Example 240, [2-Chloro-4-fluoro-5-(7-morpholin-4-yl-pyrido[3,2-d}-pyrimidin-4-yl)-phenyl]-(3-methyl-pyrazin-2-yl)-methanol]: 0.5 to 5 µM; for `COc1nccnc1C(C(N)=O)c1cc(-c2ncnc3cc(N4CCOCC4)cc(F)c23)c(F)cc1Cl` (centres unmarked) [Example 261, 2-[2-Chloro-4-fluoro-5-(5-fluoro-7-morpholin-4-yl-quinazolin-4-yl)-phenyl]-2-(3-methoxy-pyrazin-2-yl)acetamide]: 0.5 to 5 µM.
Same read-out and setting: the same measure for `Cc1cnc(C(C(N)=O)c2cc(-c3ncnc4cc(N5CCOCC5)ccc34)c(F)cc2Cl)c(C)n1` (centres unmarked) [Example 301, 2-[2-Chloro-4-fluoro-5-(7-morpholin-4-yl-quinazolin-4-yl)-phenyl]-2-(3,5-dimethyl-pyrazin-2-yl)acetamide]: 0.5 to 5 µM.

Staying with this test, now noted: cellular DNA-PK phosphorylation at serine 2056, HCT116 cells; read-out: IC50 pDNA-PK.
Turning to `O[C@@H](c1cc(-c2ncnc3cc(N4CCOCC4)ccc23)c(F)cc1Cl)c1nccn2ccnc12` (single isomer, unassigned) [Example 396], the 50% inhibitory concentration (IC50) is less than 0.5 µM.
For the compound `Cc1cncnc1C(O)c1cc(-c2ncnc3cc(N4CCOCC4)ccc23)ccc1Cl` (centres unmarked) [Example 418, [2-Chloro-5-(7-morpholin-4-yl-quinazolin-4-yl)-phenyl]-(5-methyl-pyrimidin-4-yl)-methanol (Ena 1)], the 50% inhibitory concentration (IC50) fell in the range of 0.5 to 5 µM.

The test is the same for the next values; noted with them: phospho-serine 2056 DNA-PK, bleomycin-treated HCT116 cells; read-out: IC50 pDNA-PK.
As to `Cn1c(C(O)c2cc(-c3ncnc4cc(N5CCOCC5)ccc34)ccc2Cl)cccc1=O` (centres unmarked) [Example 364, 6-{[2-Chloro-5-(7-morpholin-4-yl-quinazolin-4-yl)-phenyl]hydroxy-methyl}-1-methyl-1H-pyridin-2-one (Ena 1)], the IC50 was less than 0.5 µM.
